Key:
[1] = test system: Podosphaera leucotricha; assay: In vivo test on Podosphaera leucotricha (apple mildew), preventive spray; conditions: 240 h, apple young plants, evaluated 10 days after inoculation, good (at least 70%) to total protection
Protocol: In Vivo Test on Podosphaera leucotncha (Apple Mildew) [table] To produce a suitable preparation of active compound, 1 part by weight of active compound is mixed with the stated amounts of solvent and emulsifier, and the concentrate is diluted with water to the desired concentration. Young plants are sprayed with the preparation of active compound at the stated rate of application. After the spray coating has dried on, the plants are inoculated with an aqueous spore suspension of the causal agent of apple mildew (Podosphaera leucobicha). The plants are then placed in a greenhouse at approximately 23° C. and a relative atmospheric humidity of approximately 70%. The test is evaluated 10 days after the inoculation. Under these conditions, good (at least 70%) to total protection is observed at a dose of 100 ppm with the following compounds: 104, 160, 176, 177, 180, 186, 187, 188, 192, 194, 196, 198, 203, 204, 205, 207, 209, 210, 211, 212, 213, 218 and 446.

[2] = test system: Erysiphe graminis f.sp. horde; assay: In vivo test on Erysiphe graminis (barley mildew), preventive spray; conditions: Blumeria graminis, 168 h, barley young plants, evaluated 7 days after inoculation, good (at least 70%) to total protection
Protocol: In Vivo Test on Erysiphe Graminis (Barley Mildew) [table] To produce a suitable preparation of active compound, 1 part by weight of active compound or active compound combination is mixed with the stated amounts of solvent and emulsifier, and the concentrate is diluted with water to the desired concentration. Young plants are sprayed with the preparation of active compound or active compound combination at the stated rate of application. After the spray coating has dried on, the plants are dusted with spores of Erysiphe graminis f.sp. horde. The plants are placed in a greenhouse at a temperature of approximately 20° C. and a relative atmospheric humidity of approximately 80% to promote the development of mildew pustules. The test is evaluated 7 days after the inoculation. Under these conditions, good (at least 70%) to total protection is observed at a dose of 1000 ppm with the following compounds: 104, 160, 177, 178, 186, 192, 194, 203, 204, 205, 207, 210, 212, 213 and 435.

[3] = test system: Pyrenophora teres; assay: In vivo test on Pyrenophora teres (barley net blotch); conditions: 288 h, barley plants (Express variety), grading 12 days after contamination, good (at least 70%) or total protection
Protocol: In Vivo Test on Pyrenophore teres (Barley Net Blotch)
(§1) The active ingredients tested are prepared by homogenisation in a mixture of acetone/tween/DMSO, then diluted with water to obtain the desired active material concentration. Barley plants (Express variety) in starter cups, sown on a 50/50 peat soil-pozzolana substrate and grown at 12° C., are treated at the 1-leaf stage (10 cm tall) by spraying with the active ingredient prepared as described above. Plants, used as controls, are treated with the mixture of acetone/tween/DMSO/water not containing the active material.
After 24 hours, the plants are contaminated by spraying them with an aqueous suspension of Pyrenophora teres spores (12,000 spores per ml). The spores are collected from a 12-day-old culture. The contaminated barley plants are incubated for 24 hours at about 20° C. and at 100% relative humidity, and then for 12 days at 80% relative humidity.

[4] = test system: Puccinia recondita; assay: In vivo test on Puccinia recondita f. sp. tritici (wheat brown rust); conditions: 240 h, wheat plants (Scipion variety), grading 10 days after contamination, good (at least 70%) or total protection
Protocol: In vivo Test on Puccinia reconditef. Sp. tritici (Wheat Brown Rust)
as §1, with “Wheat” for “Barley”, “(Scipion” for “(Express”, “on” for “on a”
After 24 hours, the plants are contaminated by spraying the leaves with an aqueous suspension of Puccinia recondita spores (100,000 spores per ml). The spores are collected from a 10-day-old contaminated wheat and are suspended in water containing 2.5 ml/of tween 80 10%. The contaminated wheat plants are incubated for 24 hours at 20° C. and at 100% relative humidity, and then for 10 days at 20° C. and at 70% relative humidity. Grading is carried out 10 days after the contamination, in comparison with the control plants.

[5] = logP by HPLC on reversed-phase column (C 18), EEC Directive 79/B31 Annex V.A8, methods A and B; format: physicochemical; conditions: reversed-phase HPLC column (C 18), linear gradient 10% to 90% acetonitrile
Protocol: Calibration was carried out using unbranched alkan-2-ones (having 3 to 16 carbon atoms) with known logP values (determination of the logP values by the retention times using linear interpolation between two successive alkanones).

[6] = test system: Alternaria solani; assay: In vivo test on Alternaria solani (tomato leaf spot), preventive spray; conditions: 168 h, tomato young plants, evaluated 7 days after inoculation, good (at least 70%) to total protection
Protocol: In Vivo Test on Alternaria Solani (Tomato Leaf Spot) [table] To produce a suitable preparation of active compound, 1 part by weight of active compound is mixed with the stated amounts of solvent and emulsifier, and the concentrate is diluted with water to the desired concentration. Young plants are sprayed with the preparation of active compound at the stated rate of application. After the spray coating has dried on, the plants are inoculated with an aqueous spore suspension of Alternaria solani. The plants remain for one day in an incubation cabinet at approximately 20° C. and a relative atmospheric humidity of 100%. Then the plants are placed in an incubation cabinet at approximately 20° C. and a relative atmospheric humidity of 96%. The test is evaluated 7 days after the inoculation. Under these conditions, good (at least 70%) to total protection is observed at a dose of 500 ppm with the following compounds 110, 143, 160, 175, 176, 178, 179, 180, 186, 187, 189, 192, 196, 198, 203, 204, 205, 209, 210, 212, 214, 215 and 652.

[7] = HPLC reversed-phase C 18, method A: 43° C., 0.1% aqueous phosphoric acid, acetonitrile

Compound	chromatographic logP ([5]; HPLC reversed-phase C 18, method B: 40° C., 0.1% aqueous formic acid and acetonitrile)	chromatographic logP [5, 7]	chromatographic logP ([5]; LogP method A: HPLC reversed-phase C 18, 43° C., 0.1% aqueous phosphoric acid / acetonitrile)	pest or weed control at 100 ppm [1]	pest or weed control at 1000 ppm [2]	pest or weed control at 500 ppm [3]	pest or weed control at 500 ppm [4]	pest or weed control at 500 ppm [6]
Cn1nc(C(F)F)c(C(=O)N(C2CC2)S(=O)(=O)c2cccc(O)c2O)c1F [Compound 104]	3.2			≥ 70%	≥ 70%	≥ 70%	≥ 70%	
Cc1nn(C)c(F)c1C(=O)N(C1CC1)S(=O)(=O)c1ccc(Oc2ccccc2)cc1 [Compound 187]		3.42		≥ 70%				≥ 70%
Cc1ccccc1S(=O)(=O)N(C(=O)c1c(C)nn(C)c1F)C1CC1 [Compound 196]		2.43		≥ 70%				≥ 70%
Cc1nn(C)c(F)c1C(=O)N(C1CC1)S(=O)(=O)c1ccccc1OC(F)(F)F [Compound 203]		2.75		≥ 70%	≥ 70%			≥ 70%
Cc1nn(C)c(F)c1C(=O)N(C1CC1)S(=O)(=O)c1ccccc1Br [Compound 204]		2.37		≥ 70%	≥ 70%			≥ 70%
Cc1nn(C)c(F)c1C(=O)N(C1CC1)S(=O)(=O)c1ccccc1F [Compound 205]		2.25		≥ 70%	≥ 70%			≥ 70%
Cc1nn(C)c(F)c1C(=O)N(C1CC1)S(=O)(=O)c1ccccc1C(F)(F)F [Compound 207]		2.6		≥ 70%	≥ 70%			
Cc1nn(C)c(F)c1C(=O)N(C1CC1)S(=O)(=O)c1ccc(-c2ccccc2)cc1 [Compound 209]		3.39		≥ 70%				≥ 70%

Further lines, with some results ahead:

chromatographic logP ([5]; HPLC reversed-phase C 18, method B: 40° C., 0.1% aqueous formic acid and acetonitrile)	chromatographic logP [5, 7]	chromatographic logP ([5]; LogP method A: HPLC reversed-phase C 18, 43° C., 0.1% aqueous phosphoric acid / acetonitrile)	Compound	pest or weed control at 100 ppm [1]	pest or weed control at 1000 ppm [2]	pest or weed control at 500 ppm [3]	pest or weed control at 500 ppm [4]	pest or weed control at 500 ppm [6]
	3.03		Cc1nn(C)c(F)c1C(=O)N(C1CC1)S(=O)(=O)c1cccc(C(F)(F)F)c1 [Compound 177]	≥ 70%	≥ 70%			
	3.35		Cc1nn(C)c(F)c1C(=O)N(C1CC1)S(=O)(=O)c1ccc(O)c(O)c1 [Compound 178]		≥ 70%			≥ 70%
	2.34		Cc1nn(C)c(F)c1C(=O)N(C1CC1)S(=O)(=O)c1ccccc1O [Compound 180]	≥ 70%		≥ 70%		≥ 70%
	2.94		Cc1nn(C)c(F)c1C(=O)N(C1CC1)S(=O)(=O)c1ccc(O)cc1O [Compound 186]	≥ 70%	≥ 70%			≥ 70%
	3.55		Cc1nn(C)c(F)c1C(=O)N(C1CC1)S(=O)(=O)c1ccc(C(C)(C)C)cc1 [Compound 192]	≥ 70%	≥ 70%			≥ 70%
	3.5		Cc1nn(C)c(F)c1C(=O)N(C1CC1)S(=O)(=O)c1ccc(O)c(C(F)(F)F)c1 [Compound 194]	≥ 70%	≥ 70%			
	2.78		Cc1ccc(C)c(S(=O)(=O)N(C(=O)c2c(C)nn(C)c2F)C2CC2)c1 [Compound 198]	≥ 70%				≥ 70%
	2.77		Cc1nn(C)c(F)c1C(=O)N(C1CC1)S(=O)(=O)c1cccc(O)c1O [Compound 210]	≥ 70%	≥ 70%	≥ 70%		≥ 70%
	3.35		Cc1nn(C)c(F)c1C(=O)N(C1CC1)S(=O)(=O)c1ccc(O)c(O)c1O [Compound 212]	≥ 70%	≥ 70%			≥ 70%
	3.19		Cc1nn(C)c(F)c1C(=O)N(C1CC1)S(=O)(=O)c1ccc(C(F)(F)F)cc1O [Compound 213]	≥ 70%	≥ 70%			
		3.16	Cc1nn(C)c(F)c1C(=O)N(C1CC1)S(=O)(=O)c1cc(O)sc1O [Compound 435]		≥ 70%			

Reference: patent US7932283B2, “Fungicide N-cyclopropyl-sulfonylamide derivatives” (Bayer Cropscience AG, priority 2006, dated 2011)
